This is an account of results in patent US6166290A, “Glutathione-S-conjugate transport in plants” (The Trustees of the University of Pennsylvania, priority 1997, dated 2000).

In data set [1] the target is T1, YCF1 (vacuolar membrane vesicles purified from DTY165 cells) (Saccharomyces cerevisiae, UniProt P39109).
T1 construct: endogenous in cells; host or cells: S. cerevisiae DTY165 (wild type YCF1), vacuolar membrane vesicles
The experiment in a line: [3H]DNP-GS uptake by vacuolar membrane vesicles purified from DTY165 cells. As to conditions: 5 μM gramicidin D, read-out: I50 for MgATP-dependent, uncoupler-insensitive DNP-GS uptake. The format is biochemical. An outline of the steps:
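ATP-dependent [3H]DNP-GS (66.2 μM) transport measured by filtration and scintillation counting of Ficoll-purified yeast vacuolar vesicles (DTY165 wild type; DTY167 ycf1Δ), 1–60 min at 25 °C in sorbitol/Tris-Mes pH 8.0 with 3 mM ATP, 3 mM MgSO4 and gramicidin-D. Nonenergized uptake without ATP/Mg2+.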

For data set [2], the system named is vacuolar membrane vesicles purified from DTY167 cells (ycf1Δ mutant). The format is biochemical, Saccharomyces cerevisiae. To be noted: 5 μM gramicidin D. The procedure:
For the routine preparation of vacuolar membrane vesicles, 15 ml of stationary phase cultures of DTY165 or DTY167 were diluted into 1-liter volumes of fresh YPD medium, grown for 24 hours at 30° C. to an OD600 nm of approximately 0.8 and collected by centrifugation. After washing with distilled water, the cells were converted to spheroplasts with Zymolyase 20T (ICN) (Kim et al., 1994, supra) and intact vacuoles were isolated by flotation centrifugation of spheroplast lysates on Ficoll 400 step gradients as described by Roberts et al. (1991, Methods. Enzymol. 194:644-661). Both the spheroplast lysis buffer and Ficoll gradients contained 2 mg/ml bovine serum albumin, 1 μg/ml aprotinin, 1 μg/ml leupeptin, 1 μg/ml pepstatin, and 1 mM PMSF to minimize proteolysis. The resulting vacuole fraction was vesiculated in 5 mM MgCl2, 25 mM KCl, 10 mM Tris-Mes (pH 6.9) containing 2 mg/ml bovine serum albumin, 1 μg/ml aprotinin, 1 μg/ml leupeptin, 1 μg/ml pepstatin, and 1 mM PMSF, pelleted by centrifugation at 37,000× g for 25 min, and resuspended in suspension medium (1.1 M glycerol, 2 mM dithiothreitol, 1 mM Tris-EGTA, 2 mg/ml bovine serum albumin, 1 μg/ml aprotinin, 1 μg/ml leupeptin, 1 μg/ml pepstatin, 1 mM PMSF, 5 mM Tris-Mes, pH 7.6) (Kim et al., 1995, J. Biol. Chem. 270:2630-2635).
Unless otherwise indicated, [^3 H]DNP-GS uptake was measured at 25° C. in 200 μl reaction volumes containing 3 mM ATP, 3 mM MgSO4, 5 μM gramicidin-D, 10 mM creatine phosphate, 16 units/ml creatine kinase, 50 mM KC 1, 1 mg/ml bovine serum albumin, 400 mM sorbitol, 25 mM Tris-Mes (pH 8.0), and 66.2 μM [^3 H]DNP-GS (8.7 mCi/mmol) (Li et al., 1995, supra). […] Uptake was initiated by the addition of vacuolar membrane vesicles (10-15 μg of membrane protein), brief mixing of the samples on a vortex mixer and uptake was then allowed to proceed for 1-60 minutes. Uptake was terminated by the addition of 1 ml of ice-cold wash medium (400 mM sorbitol, 3 mM Tris-Mes, pH 8.0) and vacuum filtration of the suspension through prewetted Millipore HA cellulose nitrate membrane filters (pore diameter, 0.45 μm). The filters were rinsed twice with 1 ml of ice-cold wash medium and air-dried, and radioactivity was determined by liquid scintillation counting in BCS mixture (Amersham Corp.). Nonenergized [^3 H]DNP-GS uptake and extravesicular solution trapped on the filters were enumerated by the same procedure except that ATP and Mg^2 +were omitted from the uptake medium.

Data set [3] relates to membrane vesicles purified from pYES3-transformed DTY168 cells. Nature of the data set: DNP-GS uptake by membrane vesicles from pYES3 (empty vector)-transformed DTY168 cells. The format is biochemical, Saccharomyces cerevisiae. As to the method: S. cerevisiae strain DTY168 (MATα his6, leu2-3, -112, ura3-52 ycf1::hisG) was transformed with pYES3-AtMRP1 or empty vector lacking the AtMRP1 insert (pYES3) by the LiOAc/PEG method (Giest et al., 1991, Yeast 7:253-263) and selected for uracil prototrophy by plating on AHC medium containing tryptophan (Kim et al., 1994, supra).
For the preparation of membrane vesicles, 15 ml volumes of stationary phase cultures of the transformants were diluted into 1 L of fresh AHC medium and grown to an OD600 nm of about 1.2. Membrane vesicles were purified as described herein and in Kim et al. (1995, supra).
DNP-GS uptake was measured as described herein in 200 μl reaction volumes containing 3 mM ATP, 3 mM MgSO4, 5 μM gramicidin-D, 10 mM creatine phosphate, 16 units/ml creatine kinase, 50 mM KCl, 1 mg/ml BSA, 400 mM sorbitol, 25 mM Tris-Mes (pH 8.0) and the indicated concentrations of [^3 H]DNP-GS (17.4 mCi/mmol).

Data set [4] deals with vacuolar GS-X pump (vacuolar membrane vesicles, V. radiata hypocotyls). The experiment in a line: GS-conjugate uptake by vacuolar membrane vesicles from etiolated hypocotyls of V. radiata. The format is biochemical, Vigna radiata. The procedure: Values shown are means ±SE (n=3).
Vacuolar membrane vesicles were purified from etiolated hypocotyls of V. radiata cv.
Unless otherwise indicated, [^3 H]medicarpin or [3H]medicarpin-GS uptake was measured at 25° C. in 200 μl reaction volumes containing 3 mM ATP, 3 mM MgSO4, 10 mM creatine phosphate, 16 U/ml creatine kinase, 50 mM KCl, 0.1% (w/v) BSA, 400 mM sorbitol and 25 mM Tris-Mes buffer, pH 8.0. Uptake was initiated by the addition of 12 μl membrane vesicles (30-40 μg protein) and brief mixing of the samples on a vortex mixer. Uptake was terminated by the addition of 1 ml ice-cold wash medium (400 mM sorbitol, 3 mM Tris-Mes, pH 8.0) and vacuum filtration of the suspension through prewetted HA cellulose nitrate filters (pore diameter 0.45 μm). The filters were rinsed twice with a 1 ml ice-cold wash medium, air-dried and radioactivity was determined by liquid scintillation counting.

The test system of data set [5] is vacuolar GS-X pump (vacuolar membrane vesicles, Z. mays roots). Nature of the data set: GS-conjugate uptake by vacuolar membrane vesicles from roots of Z. mays. The format is biochemical, Zea mays.
Data set [6] deals with endogenous GS-X pump of plant vacuolar membranes. To be noted: vanadate; read-out: I50 for inhibition of the endogenous vacuolar GS-X pump of plant cells; cited from earlier work.
Substrate in data set [7]: N[C@@H](CCC(=O)N[C@@H](CSSC[C@H](NC(=O)CC[C@H](N)C(=O)O)C(=O)NCC(=O)O)C(=O)NCC(=O)O)C(=O)O
The experiment in a line: cells, lysate or membranes. As to conditions: other: MgATP-dependent, uncoupler-insensitive; pH 8.0.

The mark [8] stands for this setting: read-out: I50 for uptake of IAA-GS.

Read-outs that look alike come from different tables or passages of the source.

T1 sequence (P39109 whole entry): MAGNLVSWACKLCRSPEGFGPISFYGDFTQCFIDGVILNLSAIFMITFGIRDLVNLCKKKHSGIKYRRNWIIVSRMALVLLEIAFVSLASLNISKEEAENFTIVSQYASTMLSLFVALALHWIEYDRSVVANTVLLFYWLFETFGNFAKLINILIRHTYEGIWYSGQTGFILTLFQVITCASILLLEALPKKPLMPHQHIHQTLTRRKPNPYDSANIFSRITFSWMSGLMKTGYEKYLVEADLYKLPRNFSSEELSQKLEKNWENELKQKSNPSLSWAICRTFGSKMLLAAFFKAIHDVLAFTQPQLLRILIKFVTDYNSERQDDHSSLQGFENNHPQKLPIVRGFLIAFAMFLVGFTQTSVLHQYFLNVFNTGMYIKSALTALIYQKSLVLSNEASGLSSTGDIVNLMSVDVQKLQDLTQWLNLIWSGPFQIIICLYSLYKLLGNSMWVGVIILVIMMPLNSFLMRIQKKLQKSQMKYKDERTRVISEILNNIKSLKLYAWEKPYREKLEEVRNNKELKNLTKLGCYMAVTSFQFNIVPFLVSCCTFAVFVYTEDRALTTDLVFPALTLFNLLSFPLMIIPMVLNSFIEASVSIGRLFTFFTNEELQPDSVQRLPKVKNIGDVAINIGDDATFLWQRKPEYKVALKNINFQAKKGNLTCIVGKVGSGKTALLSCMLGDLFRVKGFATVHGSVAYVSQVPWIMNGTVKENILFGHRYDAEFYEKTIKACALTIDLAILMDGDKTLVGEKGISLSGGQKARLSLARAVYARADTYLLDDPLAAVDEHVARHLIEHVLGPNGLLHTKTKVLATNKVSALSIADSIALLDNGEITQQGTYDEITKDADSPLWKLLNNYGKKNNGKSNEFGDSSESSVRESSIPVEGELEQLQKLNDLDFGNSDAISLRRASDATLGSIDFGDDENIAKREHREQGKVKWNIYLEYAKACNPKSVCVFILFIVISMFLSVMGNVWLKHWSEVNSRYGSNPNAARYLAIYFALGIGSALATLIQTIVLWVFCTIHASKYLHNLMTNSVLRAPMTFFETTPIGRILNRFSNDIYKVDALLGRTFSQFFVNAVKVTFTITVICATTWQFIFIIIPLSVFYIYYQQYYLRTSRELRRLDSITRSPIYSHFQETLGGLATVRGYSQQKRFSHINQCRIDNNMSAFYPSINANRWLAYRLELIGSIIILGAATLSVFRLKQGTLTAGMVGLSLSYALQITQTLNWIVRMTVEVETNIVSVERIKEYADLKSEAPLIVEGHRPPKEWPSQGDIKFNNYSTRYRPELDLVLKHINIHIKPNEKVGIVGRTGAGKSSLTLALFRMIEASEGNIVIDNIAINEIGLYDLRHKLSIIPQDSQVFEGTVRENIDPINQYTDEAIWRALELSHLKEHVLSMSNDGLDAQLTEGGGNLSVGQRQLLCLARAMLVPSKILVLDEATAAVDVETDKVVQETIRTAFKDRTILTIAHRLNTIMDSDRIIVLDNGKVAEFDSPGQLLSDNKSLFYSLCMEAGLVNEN

Consider `[O]=[V]([O-])([O-])[O-]` [Vanadate], for which the IC50 in data set [1] (listed as vanadate) is 179 µM; in data set [1] it was 179 µM; in data set [4] (V. radiata, read-out: I50 for uptake of C3G-GS), 7.9 µM; in data set [4] (setting [8]) it was 6.5 µM; in data set [5] (read-out: I50 for uptake of ABA-GS) it was over 150 µM; in data set [5] (read-out: I50 for uptake of C3G-GS), 8.2 µM. In addition, the values for the IC50 in data set [5] (setting [8]) and in data set [6] were 5.5 µM and 7.5 ± 3.9 µM, respectively. Also, the “I50 for MgATP-dependent, uncoupler-insensitive DNP-GS uptake” value in data set [2] is recorded as “Insensitive”. Also, the “sensitivity of DNP-GS uptake to vanadate” value in data set [3] is on record as “insensitive”. In addition, the “inhibition of MgATP-dependent [3H]medicarpin-GS uptake” value in data set [4] (vanadate 10 μM, DNP-GS 100 μM, gramicidin D) was “more than 85%”.

B1: AtMRP2 (Arabidopsis thaliana) (protein)
chain: MGFEFIEWYCKPVPNGVWTKQVANAFGAYTPCATDSFVLGISQLVLLVLCLYRIWLALKDHKVERFCLRSRLYNYFLALLAAYATAEPLFRLIMGISVLDFDGPGLPPFEAFGLGVKAFAWGAVMVMILMETKIYIRELRWYVRFAVIYALVGDMVLLNLVLSVKEYYSSYVLYLYTSEVGAQVLFGILLFMHLPNLDTYPGYMPVRSETVDDYEYEEISDGQQICPEKHANIFDKIFFSWMNPLMTLGSKRPLTEKDVWYLDTWDQTETLFTSFQHSWDKELQKPQPWLLRALNNSLGGRFWWGGFWKIGNDCSQFVGPLLLNQLLKSMQEDAPAWMGYIYAFSIFVGVVFGVLCEAQYFQNVMRVGYRLRSALIAAVFRKSLRLTNEGRRKFQTGKITNLMTTDAESLQQICQSLHTMWSAPFRIIIALILLYQQLGVASLIGALLLVLMFPLQTVIISKMQKLTKEGLQRTDKRIGLMNEVLAAMDTVKCYAWENSFQSKVQTVRDDELSWFRKSQLLGALNMFILNSIPVLVTIVSFGVFTLLGGDLTPARAFTSLSLFAVLRFPLFMLPNIITQVVNANVSLKRLEEVLATEERILLPNPPIEPGEPAISIRNGYFSWDSKGDRPTLSNINLDVPLGSLVAVVGSTGEGKTSLISAILGELPATSDAIVTLRGSVAYVPQVSWIFNATVRDNILFGSPFDREKYERAIDVTSLKHDLELLPGGDLTEIGERGVNISGGQKQRVSMARAVYSNSDVYIFDDPLSALDAHVGQQVFEKCIKRELGQKTRVLVTNQLHFLSQVDRIVLVHEGTVKEEGTYEELSSNGPLFQRLMENAGKVEEYSEENGEAEADQTAEQPVANGNTNGLQMDGSDDKKSKEGNKKGGKSVLIKQEERETGVVSWRVLKRYQDALGGAWVVMMLLLCYVLTEVFRVTSSTWLSEWTDAGTPKSHGPLFYNLIYALLSFGQVLVTLTNSYWLIMSSLYAAKKLHDNMLHSILRAPMSFFHTNPLGRIINRFAKDLGDIDRTVAVFVNMFMGQVSQLLSTVVLIGIVSTLSLWAIMPLLVLFYGAYLYYQNTAREVKRMDSISRSPVYAQFGEALNGLSTIRAYKAYDRMADINGRSMDNNIRFTLVNMGANRWLGIRLETLGGLMIWLTASFAVMQNGRAENQQAFASTMGLLLSYALNITSLLTGVLRLASLAENSLNAVERVGNYIEIPPEAPPVIENNRPPPGWPSSGSIKFEDVVLRYRPQLPPVLHGVSFFIHPTDKVGIVGRTGAGKSSLLNALFRIVEVEKGRILIDDCDVGKFGLMDLRKVLGIIPQSPVLFSGTVRFNLDPFGEHNDADLWESLERAHLKDTIRRNPLGLDAEVSEAGENFSVGQRQLLSLSRALLRRSKILVLDEATAAVDVRTDALIQKTIREEFKSCTMLIIAHRLNTIIDCDKILVLDSGRVQEFSSPENLLSNEGSSFSKMVQSTGAANAEYLRSLVLDNKRAKDDSHHLQGQRKWLASSRWAAAAQFALAASLTSSHNDLQSLEIEDDSSILKRTNDAVVTLRSVLEGKHDKEIAESLEEHNISREGWLSSLYRMVEGLAVMSRLARNRMQQPDYNFEGNTFDWDNVEM
B1: the Michaelis-Menten constant (Km) in data set [7] was found to be 73.0 ± 15.1 µM.
